The conditions of series [1]: adult rats; Kohane et al. 1998; cited from earlier work.
A short description of series [2]: Systemic distribution/toxicity after sciatic injection (contralateral thermal latency, deaths). To be noted: 1.5 ml of 0.5% bupivacaine (7.5 mg), n=6. The format is in vivo, rat. The procedure: (§1) Prior to nerve block injections, rats were anesthetized briefly (<2 minutes) with halothane. […] A 20G needle was introduced postero-medial to the greater trochanter, pointing in an anteromedial direction (Thalhammer et al. “Neurologic evaluation of the rat during sciatic nerve block with lidocaine” Anesthesiology 82:1013-1025, 1995; incorporated herein by reference). Once bone was contacted, the needle was withdrawn 1 mm and the particle-containing solution was injected. The left leg was always used for blocks; the right served as control.
Nociceptive block was assessed by a modified hotplate test (Masters et al. “Prolonged regional nerve blockade by controlled release of local anesthetic from a biodegradable polymer matrix” Anesthesiology 79:1-7, 1993; incorporated herein by reference). Hind paws were exposed in sequence (left then right) to a hot plate at 56° C. (Model 39D Hot Plate Analgesia Meter, IITC Inc., Woodland Hills, Calif.), and the time (latency) until paw withdrawal was measured by a stopwatch. Thermal latency is a measure of the intensity of analgesia. If the paw remained in contact for 12 seconds, it was removed by the experimenter to avoid injury to the animal or the development of hyperalgesia. This test was repeated three times for each rat at every time-point.

Another series relates to sciatic nerve. In words: Sciatic nerve block, thermal nociception (modified hotplate test). It is filed as in vivo, rat. To be noted: 1.5 ml of 0.5% bupivacaine (7.5 mg), n=6, rats approx. 410 g. The procedure: as §1
The effectiveness of block was measured at various time points, applying the methods of Thalhammer et al. (Thalhammer et al. “Neurologic evaluation of the rat during sciatic nerve block with lidocaine” Anesthesiology 82:1013-1025, 1995; […]; incorporated herein by reference).
Nociceptive block was assessed by a modified hotplate test (Masters et al. “Prolonged regional nerve blockade by controlled release of local anesthetic from a biodegradable polymer matrix” Anesthesiology 79:1-7, 1993; incorporated herein by reference). Hind paws were exposed in sequence (left then right) to a hot plate at 56° C. (Model 39D Hot Plate Analgesia Meter, IITC Inc., Woodland Hills, Calif.), and the time (latency) until paw withdrawal was measured by a stopwatch. Thermal latency is a measure of the intensity of analgesia. […]

Series [3] can be described thus: Median lethal dose of bupivacaine (literature). It is filed as in vivo. To be noted: in a 350 g rat. The procedure: Encapsulation improved the safety and efficacy of bupivacaine. […] For this experiment larger rats (approx. 410 g) were used than those used in the remainder of the study, in order to avoid animal death (the median lethal dose of bupivacaine in adult rats is 30±5 mg/kg (Kohane et al. “Sciatic nerve blockade in infant, adolescent, and adult rats: a comparison of ropivacaine and bupivacaine” Anesthesiology 89:1199-1208, 1998; incorporated herein by reference), or 10.5 mg in a 350 g rat). […] It was not possible to directly compare the efficacy of bupivacaine solution and 50% bupivacaine microspheres, since the dose of bupivacaine contained in 75 mg of those microspheres ([…]) is approximately three times the median lethal dose of the unencapsulated drug (Kohane et al. “Sciatic nerve blockade in infant, adolescent, and adult rats: a comparison of ropivacaine and bupivacaine” Anesthesiology 89:1199-1208, 1998). Nevertheless, it is obvious that the microspheres increased the safety of bupivacaine.

Where two headings read alike, the source gives them in different places.

Consider `CCCCN1CCCCC1C(=O)Nc1c(C)cccc1C` (stereo not shown) [bupivacaine], for which the median lethal dose is 30 ± 5 mg/kg in series [1] and 10.5 mg in series [3]. Further, in series [2], the “rats with severe signs of systemic toxicity (thermal latency=12 seconds in the uninjected leg)” value is on record as “one of those rats”. Also, the duration of block in the series on sciatic nerve stood at 166 ± 55 min.

These data come from patent US20020150621A1, “Lipid-protein-sugar particles for drug delivery” (priority 2000, published 2002).
